The values below come from paper PMC3334918, “Mutagenesis and Functional Studies with Succinate Dehydrogenase Inhibitors in the Wheat Pathogen Mycosphaerella graminicola” (PLoS ONE, 2012).

Common to all, as to assay: in vivo sensitivity, liquid culture growth (AE media)
Type in all cases: cell-based, Mycosphaerella graminicola

In assay [1] the test system is M. graminicola strain Cbx29 (SDHB_H267L). To be noted: B_H267L, ratio IC50mutant/IC50WT. The procedure: (§1) To explore the sensitivity profiles conferred by amino acid substitutions at the cellular and mitochondrial level, we determined sensitivity towards 4 different compounds for 26 of the identified substitution types both in vivo using liquid culture growth (AE media) and in vitro using purified mitochondria and the succinate: Q0/DCPIP activity test (Table 3). […] Resistance factors (RF) were determined as the ratio IC50mutant/IC50WT. […] Qp site mutations are well known to influence SDH enzyme activity and stability upon catalysis, [13], [38], [41].
(§2) Conidial cells were collected from 4 day old V8 agar plates (cultured at 18°C in the dark) using liquid AE and a cell spreader. Cell density was determined and cells re-suspended to a concentration of 5×10^5 cells ml^−1 in AE media. Sterile 96 wells microtiter plates with lids (Costar) were inoculated with 198 µl of this cell suspension (10^5 cells per well) and 2 µl of inhibitor (100× in DMSO). Final inhibitor concentrations were between 0.95 nM and 1 mM with uniform 4× dilution factor steps (11 inhibitor concentrations+1 DMSO control). Plates were incubated for 6 days at 19°C in the dark before cells were re-suspended and measured for growth (OD600 nm). IC50 values were determined by non linear curve fitting on the basis of measured OD values versus log inhibitor concentrations (GraphPad Prism 5.0 software).

Assay [2] relates to M. graminicola strain Flu33 (SDHB_N271K). Particulars: B_N271K, ratio IC50mutant/IC50WT. The procedure:
as §1, §2

Assay [3] relates to M. graminicola strain Flu4 (SDHC_A84V). Particulars: C_A84V, ratio IC50mutant/IC50WT. The procedure: as §1, §2
Assay [4] deals with M. graminicola strain Flu21 (SDHC_A84I). To be noted: C_A84I, ratio IC50mutant/IC50WT. The protocol: as §1, §2
Assay [5] concerns M. graminicola strain Izm7 (SDHC_N86K). Particulars: C_N86K, ratio IC50mutant/IC50WT. The protocol:
as §1, §2

For assay [6], the system named is M. graminicola strain Flu110 (SDHB_P220T). Particulars: B_P220T, ratio IC50mutant/IC50WT. The protocol:
as §1, §2

In assay [7] the test system is M. graminicola strain Flu9 (SDHC_R87C). To be noted: C_R87C, ratio IC50mutant/IC50WT. The protocol: as §1, §2
The subject of assay [8] is M. graminicola strain Cbx106 (SDHB_N225H). Particulars: B_N225H, ratio IC50mutant/IC50WT. The protocol:
as §1, §2

The subject of assay [9] is M. graminicola strain Cbx101 (SDHD_D129S). Particulars: D_D129S, ratio IC50mutant/IC50WT. The protocol: as §1, §2
Assay [10] deals with M. graminicola strain Cbx67 (SDHD_D129G). To be noted: D_D129G, ratio IC50mutant/IC50WT. The procedure: as §1, §2
The subject of assay [11] is M. graminicola strain Cbx56 (SDHB_R265P). Particulars: B_R265P, ratio IC50mutant/IC50WT. The protocol:
as §1, §2

Assay [12] concerns M. graminicola strain Flu75 (SDHB_P220L). Particulars: B_P220L, ratio IC50mutant/IC50WT. The protocol: as §1, §2

As for `CC(C)C1C2CCC1c1c(NC(=O)c3cn(C)nc3C(F)F)cccc12` (stereo not drawn) [Isopyrazam], the “Resistance Factors (RFs) in vivo” value is reported as 152.2 in assay [1]; 5.7 in assay [2]; 3.5 in assay [3]; 8.8 in assay [4]; 464.4 in assay [5]; 3.8 in [6]. In addition, the “Resistance Factors (RFs) in vivo” value in assay [7] worked out at 3.7; in assay [8], 13.6; in assay [9], 10.8; in assay [10], 22.9; in [11], 7.6; in assay [12] it was 4.8.
